Data: US9783551B2, “Pyranochromenyl phenol derivative, and pharmaceutical composition for treating metabolic syndrome or inflammatory disease” (GLACEUM, INC., priority 2013, dated 2017)

Key:
C2C12 cells = assay: Glucose uptake (2-NBDG) in C2C12 cells; format: cell-based; conditions: 24 hours
Description: In terms of capacity of glucose uptake in C2C12 cells, the compound (Compound 15) of Example 14 of the present invention was compared with the existing Rosiglytazone and Metformin which were used or are currently used as a therapeutic agent for diabetes. The C2C12 cell was cultured in a Dulbecco's modified eagle medium (DMEM) supplemented with 10% fetal bovine serum (FBS), penicillin (120 unit/mL), and streptomycin (75 μg/mL), the medium used for differentiation was a DMEM medium supplemented with 1% horse serum, and the C2C12 cell was cultured in the DMEM medium for 4 days. The cell thus cultured was treated with Compound 15 in a low-glucose, serum-free medium supplemented with 2-[N-(7-nitrobenz-2-oxa-1,3-diazol-4-yl)amino]-2-deoxy-d-glucose (2-NBDG) for 24 hours to measure the glucose absorbance at an excitation wavelength of 485 nm and an emission wavelength of 535 nm using a fluorescent detector. The same experiment was performed on Rosiglytazone and Metformin.

PTP1B = PTP1B (Homo sapiens (Human), UniProt P18031); assay: Experiment of PTP1B inhibition (p-NPP dephosphorylation); format: biochemical; conditions: 2 mM p-NPP substrate, 30° C., 30 minutes
Source text: With respect to PTP1B, the degrees of inhibition (IC50 The half maximal inhibitory concentration) of glabridin, and compounds of Preparation Example 2 (Compound 1), Example 2 (Compound 3), Example 3 (Compound 4), Example 4 (Compound 5), Example 13 (Compound 14), Example 14 (Compound 15), Example 15 (Compound 16), Example 17 (Compound 18), Example 18 (Compound 19) and Example 20 (Compound 21) were compared to each other. For this purpose, the degree of inhibition activity for PTP1B was investigated by using 2 mM p-nitrophenyl phosphate (p-NPP) as a substrate to measure the dephosphorylation degree. First, PTP1B diluted with distilled water was reacted with 2 mM p-nitrophenyl phosphate {p-NPP, 0.1 M NaCl, 1 mM EDTA, 50 mM citrate pH 6.0, and 1 mM dithiothreitol (DTT)} and Compound 1 at various concentrations at 30° C. for 30 minutes, and then the reaction was terminated with a 1 N-sodium hydroxide (NaOH) solution. The absorbance of the samples thus prepared was measured to confirm the inhibition degree (IC50: The half maximal inhibitory concentration) for PTP1B activity according to the concentration of Compound 1. Even for glabridin, Compound 3, Compound 4, Compound 5, Compound 14, Compound 15, Compound 16, Compound 18, Compound 19, and Compound 21, the same measurement was performed.

DIO mice [1] = assay: Anti-obesity effect for DIO mice (body weight); format: in vivo, C57BL/6 mice; conditions: Mus musculus, 672 h; 4 weeks, 150 mg/kg, oral gavage once daily
Description: (§1) Five-week-old female C57BL/6 mice (Narabio Co., Ltd.) were purchased and fed with only high-fat diet for at least 10 weeks to produce diet induced obesity ([…]) mice. Samples were exactly taken from Preparation Example 1 (glabridin) and the compounds of Examples of the present invention (Compounds 1 to 5, 7, 9, 11, 14 to 16, 21, and 23) according to the administration dose and put into Falcon tubes, 3 ml of a 0.5% methyl cellulose aqueous solution was added thereto and a vortex mixer was used to primarily mix the ingredients in a soft manner, and then a homogenizer (30,000 rpm, Ultra-Turrax® T10 Basic, IKA) was used to treat the sample for 3 minutes while 1.5 ml of a 0.5% methyl cellulose aqueous solution was added thereto. The sample thus prepared was administered through oral gavage using a disposable plastic syringe once daily for 28 days (4 weeks). The body weight was measured twice a week while the DIO mice were bred in this manner. Based on the data thus calculated, the anti-obesity effect (%) was calculated according to the equation defined as follows. Anti-Obesity Effect={(Body weight of control group)−(Body weight of experimental group)}/(Body weight of control group)×100

DIO mice [2] = assay: Organ weights and blood biochemistry of DIO mice after 28 days of administration; format: in vivo, C57BL/6 mice; conditions: 150 mg/kg
Description: as §1
After the experiment was performed for 28 days (4 weeks) as described above, blood was simultaneously taken while the experimental animal was finally sacrificed, and each of the organs (liver, heart, kidney, pancreas, fat tissues and the like) was removed to measure the weight and observe peculiar matters.
In Table 3, { }, ( ) and the like were used in order to differentiate experiments which had been performed at different periods. Experiments without the parenthesis were those simultaneously performed under the same conditions.

BV2 microglia cells = assay: BV2 cell NO assay (LPS-induced NO production, Griess reagent); format: cell-based; conditions: Mus musculus, BV-2, LPS 1 μg/ml, 24 hours
Description: (§2) After the pretreatment, 0.5 mg/ml of the MTT (Sigma, M2128) reagent was further added thereto. After the cells were cultured in a 5% CO2 incubator, the supernatant was discarded, 150 μl of DMSO was added and was shaken for 30 minutes, and an ELISA micro plate reader (Bio Rad Laboratories Inc., California, USA, Model 680) was used to measure the absorbance at a wavelength of 540 nm. All the experimental values were calculated as an average value of three repeated experimental values of the cell protection rate for the control group, and an experiment of suppressing the NO production for each compound was carried out at a concentration in which no cytotoxicity was shown.
(§3) After the reaction, an ELISA micro plate reader (Bio Rad Laboratories Inc., California, USA, Model 680) was used to measure the absorbance at a wavelength of 540 nm. The suppression rate was calculated as a difference in amount of NO produced between the control group and the experimental group, and as shown in the following Table 6 and FIG. 6, Compounds 4, 5, 15, 16, 18, and the like of the present invention were excellent in the effect of suppressing the production of NO, and the effect is also about 5 times to about 9 times better than that of glabridin.

RAW264.7 macrophages = assay: RAW264.7 macrophage NO assay (LPS-induced NO production, Griess reagent); format: cell-based; conditions: for IC50: Mus musculus, RAW264.7, NO production, LPS 1 μg/ml, 24 hours
Description: as §2, with “pretreatment,” for “pretreatment, 0.5 mg/ml of”, “reagent at a concentration of 0.5 mg/ml” for “reagent”, “incubator for 4 hours,” for “incubator,”
as §3, with “7,” for “6 and FIG. 6,”, “NO.” for “NO, and the effect is also about 5 times to about 9 times better than that of glabridin.”

[3] = Chemical stability in 1% HCl in MeOH (HPLC); format: physicochemical
Description: (§4) The relative chemical stability of glabridin of Preparation Example 1, Example 3 (Compound 4), Example 4 (Compound 5) and Example 14 (Compound 15) were compared with each other. That is, 50 mg of each of glabridin, Compound 4, Compound 5, and Compound 15 was exactly weighed, dissolved in 50 ml of 1% HCl in MeOH and 10 ml of 1% NaOH in MeOH, and the concentrations of the compounds were examined by HPLC at each time level of 0, 8 hrs, 12 hrs, 24 hrs, 48 hrs, and 72 hrs. At this time, the concentrations of the compounds remaining in 1% HCl in MeOH and 1% NaOH in MeOH were determined using an internal standard (Compound 14 of Example 13). That is, 10 mg of Compound 14 was exactly weighed and dissolved in 100 ml of acetonitrile, 9 ml of this solution was mixed with 1 ml of the sample aliquoted at each time level, the mixture was analyzed by HPLC, and the concentrations of the compounds in the internal standard and in the above samples were determined by comparing the initial values.
(§5) The concentrations of the compounds remaining in 1% HCl in MeOH and 1% NaOH in MeOH at each time level are in the following Table 8 and FIG. 7 and the following Table 9 and FIG. 8, respectively.
(§6) The numerical values exceeding 100% in the following Tables 8 and 9 show those measured at a concentration is slightly higher than the initial measurement value, and this is due to the fact that an average value of the measured values was simply shown without considering a statistical error generated during the measurement. Since the measured value of about 95% or more is deemed to have practically no change in concentration, it may be seen that the compounds of the present invention are excellent in chemical stability.

[4] = Chemical stability in 1% NaOH in MeOH (HPLC); format: physicochemical
Description: as §4, §5, §6

Chain of PTP1B (P18031 whole entry, species assumed): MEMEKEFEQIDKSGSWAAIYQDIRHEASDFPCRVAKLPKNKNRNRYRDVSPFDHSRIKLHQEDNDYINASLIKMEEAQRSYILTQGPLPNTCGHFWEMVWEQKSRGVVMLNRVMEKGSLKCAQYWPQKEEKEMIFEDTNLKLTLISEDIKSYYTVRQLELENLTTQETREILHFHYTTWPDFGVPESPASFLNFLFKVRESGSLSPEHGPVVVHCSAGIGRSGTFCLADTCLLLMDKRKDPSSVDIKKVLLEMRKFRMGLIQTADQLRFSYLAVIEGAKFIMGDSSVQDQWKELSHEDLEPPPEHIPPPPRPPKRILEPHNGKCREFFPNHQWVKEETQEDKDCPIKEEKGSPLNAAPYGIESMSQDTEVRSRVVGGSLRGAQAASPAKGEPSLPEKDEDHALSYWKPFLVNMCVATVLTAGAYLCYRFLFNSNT

## CN(C)C(=N)N=C(N)N [Metformin]
C2C12 cells; treatment concentration 20 μM
  2-NBDG uptake (Fold Induction): 1.89 ± 0.03 Fold Induction

## CC1(C)C=Cc2c(ccc3c2OC[C@@H](c2ccc(O)cc2O)C3)O1 [Glabridin, glabridin, reference compound]
PTP1B
  IC50: 48 µM
DIO mice [1]
  inhibition in vivo at 150 mg/kg: 2%
DIO mice [2]; experiment without parenthesis
  ALT (U/L): 41 U/L
  AST (U/L): 90 U/L
  BMI: 4.2
  FFA (μEq/L): 1520 μEq/L
  Fat (g), weight of fat removed around the epididymis and the kidney: 2.70 g
  LDL: 10 mg/dL
  Liver (g), weight of liver: 1.23 g
DIO mice [2]; { } experiment
  ALT (U/L): {89} U/L
  AST (U/L): {170} U/L
  BMI: {4.2}
  FFA (μEq/L): {1913} μEq/L
  Fat (g), weight of fat removed around the epididymis and the kidney: {1.92} g
  LDL (mg/dL): {17} mg/dL
  Liver (g), weight of liver: {1.48} g
BV2 microglia cells
  IC50: 19.6 µM
RAW264.7 macrophages
  IC50: 9.3 µM
[3]; 0
  concentration of compound remaining: 100%
[3]; 8 h
  concentration of compound remaining: 99%
[3]; 24 h
  concentration of compound remaining: 94%
[3]; 48 h
  concentration of compound remaining: 82%
[3]; 72 h
  concentration of compound remaining: 74%
[4]; 0
  concentration of compound remaining: 100%
[4]; 8 h
  concentration of compound remaining: 71%
[4]; 24 h
  concentration of compound remaining: 38%
[4]; 48 h
  concentration of compound remaining: 23%
[4]; 72 h
  concentration of compound remaining: 13%

## CCc1ccc(C2COc3c(ccc4c3CCC(C)(C)O4)C2)c(O)c1 (stereo not drawn) [Compound 4, 3-(2-hydroxy-4-ethylphenyl)-8,8-dimethyl-2,3,4,8,9,10-hexahydropyrano [2,3-f] chromene]
PTP1B
  IC50: 2.9 µM
DIO mice [1]
  inhibition in vivo at 150 mg/kg: 18%
DIO mice [2]; ( ) experiment
  ALT (U/L): (58) U/L
  AST (U/L): (209) U/L
  BMI: (2.9)
  FFA (μEq/L): (2380) μEq/L
  Fat (g), weight of fat removed around the epididymis and the kidney: (1.20) g
  LDL (mg/dL): (18) mg/dL
  Liver (g), weight of liver: (1.25) g
BV2 microglia cells
  IC50: 3.7 µM
RAW264.7 macrophages
  IC50: 8.6 µM
RAW264.7 macrophages; RAW264.7 macrophages, in words
  effect of suppressing the production of NO: excellent
[3]; 0
  concentration of compound remaining: 100%
[3]; 8 h
  concentration of compound remaining: 99%
[3]; 24 h
  concentration of compound remaining: 101%
[3]; 48 h
  concentration of compound remaining: 101%
[3]; 72 h
  concentration of compound remaining: 100%
[3]; until 3 days (72 hours)
  stability in words: very stable
[4]; 0
  concentration of compound remaining: 100%
[4]; 8 h
  concentration of compound remaining: 101%
[4]; 24 h
  concentration of compound remaining: 101%
[4]; 48 h
  concentration of compound remaining: 99%
[4]; 72 h
  concentration of compound remaining: 100%
[4]; until 3 days (72 hours)
  stability in words: very stable

## CN(CCOc1ccc(CC2SC(=O)NC2=O)cc1)c1ccccn1 (stereo not drawn) [Rosiglytazone]
C2C12 cells; treatment concentration 50 μM
  2-NBDG uptake (Fold Induction): 1.94 ± 0.15 Fold Induction
